According to patent US20150257394A1, “TEA EXTRACTS AND USES IN PROMOTING PLANT GROWTH” (PLANT ACTIVITY LTD., priority 2012, published 2015):

Test system: wheat seeds
Experiment: Effect of preservative on promotion of wheat seedling root growth by black tea extract (Example 10)
Assay type: in vivo
Conditions: 1% solution of methyl paraben predissolved in hexalene glycol
Method: To evaluate whether a preservative affects the benefits of black tea extracts on wheat germination and early root growth, Malawi black tea extracts and Kenya black tea extracts were prepared according to Example 1 and used to treat wheat seeds (0.6 ml/kg seed) in combination with a preservative (1% solution of methyl paraben that has been predissolved in hexalene glycol (30:1 ratio of hexalene glycol to methyl paraben)) or without the preservative substantially according to Example 2. Root system measurements were performed according to Example 6.

COC(=O)c1ccc(O)cc1 [methyl paraben]
effect of preservative on the benefits of the black tea extracts: did not negatively affect
